Source: PMC12392461, “Beyond Estrogenicity: A Comparative Assessment of Bisphenol A and Its Alternatives in In Vitro Assays Questions Safety of Replacements” (Environmental Science & Technology, 2025)
Read-outs that look alike come from different tables or passages of the source.

Key:
[1] = molecular target: T1, Peroxisome proliferator-activated receptor γ (Homo sapiens, UniProt P37231); test: cell-based; details: PPARγ bioassay, dosing range all; for EC10, linear: linear model; for logEC10: log-logistic model
T1 sequence (P37231 238-505 limits assumed): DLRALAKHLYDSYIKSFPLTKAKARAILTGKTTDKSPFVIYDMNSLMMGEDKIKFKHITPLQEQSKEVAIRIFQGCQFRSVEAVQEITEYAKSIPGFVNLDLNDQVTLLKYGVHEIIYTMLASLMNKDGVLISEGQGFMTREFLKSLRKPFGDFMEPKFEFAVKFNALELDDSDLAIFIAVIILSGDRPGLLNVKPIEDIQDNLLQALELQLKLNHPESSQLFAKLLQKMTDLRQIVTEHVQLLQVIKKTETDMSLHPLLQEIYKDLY
Source text: All bioassay media components and the ERα-UAS-bla GripTite and PPARγ-UAS-bla cells were obtained from Thermo Fisher Scientific (Waltham, MA, USA). AREc32 reporter gene cells based on MCF7 were provided by C. Roland Wolf (Cancer Research UK); AhR CALUX cells (H4L7.5c2 derived from H4IIe) were provided by Michael Denison (UC Davis, USA); and SH-SY5Y cells were purchased from Sigma-Aldrich.
(§1) Cell culture conditions and bioassay protocols including response detection are provided in Text S2.1–2.4 and Table S3. − Cell viability was determined from cell confluency using an IncuCyte S3 Live-Cell Analysis System (Sartorius AG, Essen, Germany) before and after exposure, except for SH-SY5Y cells (live–dead staining with Nuclear Green LcS1 and propidium iodide, Abcam, UK). For metabolic activation experiments, cell viability was assessed using the ToxBLAzer DualScreen Kit (Thermo Fisher Scientific) to capture the remaining toxicity in ERα-UAS-bla GripTite after treatment with the aCYP catalyst (details in Text S2.4).
(§2) For ARE, the concentration that triggered an induction ratio of 1.5 (ECIR1.5) was used as the benchmark value, as detailed in Text S2.5. IC10 values also served as a threshold for data analysis in all assays; only concentrations below IC10 were considered when deriving EC10 or ECIR1.5.
The maximum efficacy (Emax%) refers to the maximum of the log–logistic concentration–response curve attained by test chemicals compared to the reference chemical’s maximum and was obtained for both ERα and PPARγ. […]
S2: Cell culture and bioassays
S2.1: Cell Culturing Conditions
All suppliers and sources are given in detail in SI-Excel S3. The bioassay media for the different assays were prepared as follows: Assay medium for ER alpha-UAS-bla GripTite (ERα) and […]
2% charcoal-stripped FBS, and 100 U/mL penicillin-streptomycin. […]
(§3) S2.2: Cell Seeding and Incubation. For all bioassays, cell suspensions in the respective assay medium were dispensed into each well of 384-well plates using a MultiFlo Dispenser (Biotek, (now Agilent), Winooski, VT, U.S.). After seeding, the plates were incubated at 37° C and 5% CO₂ for […]. The final cell densities and plate types were as follows: Black poly-D-lysine […]
6500 cells/well, ERα: 5000 cells/well. White 384-well plates with a clear bottom (Product No. […]
S2.3: Chemical Dosing and Assay Analysis Procedures.

[2] = tested on: H4IIe (AhR CALUX); details: for IC10, linear transformed / IC10, linear / logIC10: Bioassay AhR, dosing range all; for IC10, linear transformed / IC10, linear / logIC10 / IC10, H4IIe, AhR: cytotoxicity; for IC10, linear: linear model fit; for logIC10: log-logistic model fit; for IC10, H4IIe, AhR: H4IIe (AhR assay cells)
Method: as §1, §2
(§4) We measured the cytotoxicity of BPA and its alternatives in HEK293H (PPARγ), HEK293T (ERα), H4IIe (AhR CALUX), MCF7 (ARE/MMP), and differentiated SH-SY5Y cells (Table S6). […]
as §3
(§5) 6500 cells/well, ERα: 5000 cells/well. White 384-well plates with a clear bottom (Product No.
(§6) NYC, U.S.) for AhR: 3250 cells/well. Black Collagen I coated plates were used (Product No.
(§7) S2.3: Chemical Dosing and Assay Analysis Procedures. The dosing procedure and high-throughput assay workflow have been described in detail before. 9 The dosing concentrations […]
(§8) Stock solutions were then either added directly to the respective cell culture medium or evaporated under nitrogen, followed by replenishment with fresh medium. The final solvent content in each well was kept below 1% for methanol, 0% for acetonitrile.
(§9) Dosing plates were prepared as 11 -step serial dilutions using a Hamilton Microlab Star robotic system (Hamilton, Bonaduz, Switzerland), and chemicals were dosed in duplicates by transferring 10 μL twice from the dosing plates to the cell plates . After quantifying cell confluency as described in S2. 4., the exposed cells were incubated at 37° C and 5% CO₂ for an additional 24 h. All chemicals were tested in all assays with at least three independent […]
(§10) S2.4: Cell Viability Measurement s and bioanalytical protocols . The confluency as a measure of cell viability was determined with an IncuCyte S3 Live -Cell Analysis System (Sartorius AG, Essen, Germany). With this method the confluency of cells in a microscopy image are normalized to control wells without cells and compared before and after 24 hours of exposure.
(§11) This method has been described previously 13. […]

[3] = tested on: HEK293T (ERα); details: for IC10, linear transformed / IC10, linear / logIC10: Bioassay ERα; for IC10, linear transformed / IC10, linear / logIC10 / IC10, HEK293, ERα: cytotoxicity; for IC10, linear: linear model fit; for logIC10: log-logistic model fit; for IC10, HEK293, ERα: HEK293 (ERα assay cells)
Method: as §1, §2, §4, §3, §5, §6, §7, §8, §9, §10, §11

[4] = tested on: MCF7 (ARE/MMP); details: for IC10, linear transformed / IC10, linear / logIC10: dosing range all; for IC10, MCF7, ARE: MCF7, ARE readout; for IC10, MCF7, MMP: MCF7, MMP readout
Method: as §1, §2, §4, §3, §5, §6, §7, §8, §9, §10, §11

[5] = tested on: SH-SY5Y cells; details: for IC10, linear transformed / IC10, linear / logIC10: NOI bioassay cytotoxicity, dosing range all; for IC10, linear: linear model; for logIC10: log-logistic model; for IC10, SH-S5Y5, NOI: cytotoxicity, NOI assay cells
Method: as §1, with “S2.4). […]” for “S2.4).”
as §4
medium, supplemented with 2% B-27 Supplement and 2 mM GlutaMAX Supplement. SH - SY5Y cells were differentiated with 10 µM all-trans retinoic acid prior to the assay.
S2.2: Cell Seeding and Incubation. For all bioassays, cell suspensions in the respective assay medium were dispensed into each well of 384-well plates using a MultiFlo Dispenser (Biotek, (now Agilent), Winooski, VT, U.S.). After seeding, the plates were incubated at 37° C and 5% […]
as §6, §7, §8, §9, §10
This method has been described previously 13. Cell viability of SH-SY5Y cells was measured […]
propidium iodide (PI, Abcam, Cambridge, U.K.).14 Nuclear Green LCS1 is a membrane-permeable dye that stains the nuclei of all cells, whereas PI only enters cells with compromised membrane integrity (non-viable cells). After staining, live cells show green nuclei without red fluorescence, while dead cells display both green and red nuclear fluorescence due to PI […]
intercalation. […]

[6] = Bioassay ARE, cytotoxicity, linear model fit
[7] = Bioassay ARE, cytotoxicity, log-logistic model fit
[8] = MMP bioassay cytotoxicity, linear model
[9] = MMP bioassay cytotoxicity, log-logistic model

SMILES | EC10, linear [1] | logEC10 [1] | IC10, linear transformed [2] | IC10, linear [2] | logIC10 [2] | IC10, H4IIe, AhR [2] [µM] | IC10, linear transformed ([3]; dosing range all) | IC10, HEK293, ERα [3] [µM] | IC10, linear transformed ([4]; Bioassay ARE, cytotoxicity) | IC10, linear [4, 6] | logIC10 [4, 7] | IC10, linear transformed ([4]; MMP bioassay cytotoxicity) | IC10, linear [4, 8] | logIC10 [4, 9] | IC10, MCF7, ARE ([4]; cytotoxicity) [µM] | IC10, MCF7, MMP ([4]; cytotoxicity) [µM] | IC10, linear transformed [5] | IC10, linear [5] | logIC10 [5] | IC10, SH-S5Y5, NOI [5] [µM] | further results
CC(c1ccccc1)(c1ccc(O)cc1)c1ccc(O)cc1 [BPAP, 4,4'-(1-Phenylethylidene)bisphenol] | no effect | no effect | 9.59E-05 | no cytotoxicity | -4.02 | 95.9 | 1.11E-05 | 11.8 | 3.14E-05 | 2.44E-05 | -4.50 | 3.48E-05 | 2.54E-05 | -4.46 | 31.4 | 34.8 | 1.06E-04 | no cytotoxicity | -3.97 | 106 | IC10, linear ([3]; dosing range all): no cytotoxicity; logIC10 ([3]; dosing range all): -4.93
CCC(C)(c1ccc(O)cc1)c1ccc(O)cc1 [BPB, 4,4'-(Butane-2,2-diyl)diphenol] | no effect | no effect | 8.31E-05 | 6.98E-05 | -4.08 | 69.8 | – | 20.9 | 3.73E-05 | 3.87E-05 | -4.43 | 3.51E-05 | 3.05E-05 | -4.46 | 37.3 | 35.1 | 1.67E-04 | 2.31E-04 | -3.78 | 167 | Toxic ratio (TR) TRAhR ([2]; against baseline cytotoxicity): 0.31; IC10, linear transformed ([3]; dosing range high): 6.28E-06; IC10, linear ([3]; dosing range high): no cytotoxicity; logIC10 ([3]; dosing range high): -4.68; IC10, linear ([3]; dosing range low): no cytotoxicity; logIC10 ([3]; dosing range low): no cytotoxicity; Toxic ratio (TR) TRERα ([3]; against baseline cytotoxicity): 0.43; Toxic ratio (TR) TRARE ([4]; against baseline cytotoxicity, ARE readout): 0.58; Toxic ratio (TR) TRMMP ([4]; against baseline cytotoxicity, MMP readout): 0.62; Toxic ratio (TR) TRNOI ([5]; against baseline cytotoxicity): 0.10
CC(c1ccc(O)cc1)c1ccc(O)cc1 [BPE, 4,4′-Ethylidenbisphenol] | no effect | no effect | 1.06E-04 | 8.43E-05 | -3.97 | 84.3 | 3.62E-05 | 67.4 | 7.96E-05 | 1.10E-04 | -4.10 | 7.86E-05 | 8.57E-05 | -4.10 | 79.6 | 78.6 | 2.79E-04 | 5.29E-04 | -3.55 | 279 | IC10, linear ([3]; dosing range all): 6.74E-05; logIC10 ([3]; dosing range all): -4.23
